Results: paper PMC4264455 (British Journal of Cancer, 2014)

Test system: patients with advanced refractory solid tumours or non-Hodgkin's lymphoma
Test: Phase I dose escalation: safety, tolerability, DLT and adverse events
Assay type: in vivo, human

O=C(NC1CCNCC1)c1n[nH]cc1NC(=O)c1c(Cl)cccc1Cl [AT7519, N-(4-piperidinyl)-4-(2,6-dichlorobenzoylamino)-1H-pyrazole-3-carboxamide]
ALP elevation: No. of patients with AEs of any grade (14.4 mg m^−2 (n=5)): 3 No. of patients | AST elevation: No. of patients with AEs of any grade (14.4 mg m^−2 (n=5)): 2 No. of patients | Anaemia: No. of patients with AEs of any grade (14.4 mg m^−2 (n=5)): 5 No. of patients | Anorexia: No. of patients with AEs of any grade (14.4 mg m^−2 (n=5)): 0 No. of patients | Creatinine elevation: No. of patients with AEs of any grade (14.4 mg m^−2 (n=5)): 1 No. of patients | Diarrhoea: No. of patients with AEs of any grade (14.4 mg m^−2 (n=5)): 0 No. of patients | Fatigue: No. of patients with AEs of any grade (14.4 mg m^−2 (n=5)): 0 No. of patients | Hyperglycaemia (random): No. of patients with AEs of any grade (14.4 mg m^−2 (n=5)): 0 No. of patients | Infection without neutropenia: No. of patients with AEs of any grade (14.4 mg m^−2 (n=5)): 0 No. of patients | Lymphopenia: No. of patients with AEs of any grade (14.4 mg m^−2 (n=5)): 4 No. of patients | Mucositis: No. of patients with AEs of any grade (14.4 mg m^−2 (n=5)): 0 No. of patients | Nausea: No. of patients with AEs of any grade (14.4 mg m^−2 (n=5)): 1 No. of patients | Neutropenia: No. of patients with AEs of any grade (14.4 mg m^−2 (n=5)): 0 No. of patients | Thrombocytopenia: No. of patients with AEs of any grade (14.4 mg m^−2 (n=5)): 0 No. of patients | Vomiting: No. of patients with AEs of any grade (14.4 mg m^−2 (n=5)): 1 No. of patients | ALP elevation: No. of patients with AEs of any grade (21.6 mg m^−2 (n=7)): 5 No. of patients | AST elevation: No. of patients with AEs of any grade (21.6 mg m^−2 (n=7)): 2 No. of patients | Anaemia: No. of patients with AEs of any grade (21.6 mg m^−2 (n=7)): 6 No. of patients | Anorexia: No. of patients with AEs of any grade (21.6 mg m^−2 (n=7)): 1 No. of patients | Creatinine elevation: No. of patients with AEs of any grade (21.6 mg m^−2 (n=7)): 1 No. of patients | Diarrhoea: No. of patients with AEs of any grade (21.6 mg m^−2 (n=7)): 2 No. of patients | Fatigue: No. of patients with AEs of any grade (21.6 mg m^−2 (n=7)): 4 No. of patients | Hyperglycaemia (random): No. of patients with AEs of any grade (21.6 mg m^−2 (n=7)): 1 No. of patients | Infection without neutropenia: No. of patients with AEs of any grade (21.6 mg m^−2 (n=7)): 1 No. of patients | Lymphopenia: No. of patients with AEs of any grade (21.6 mg m^−2 (n=7)): 5 No. of patients | Mucositis: No. of patients with AEs of any grade (21.6 mg m^−2 (n=7)): 3 No. of patients | Nausea: No. of patients with AEs of any grade (21.6 mg m^−2 (n=7)): 2 No. of patients | Neutropenia: No. of patients with AEs of any grade (21.6 mg m^−2 (n=7)): 0 No. of patients | Thrombocytopenia: No. of patients with AEs of any grade (21.6 mg m^−2 (n=7)): 1 No. of patients | Vomiting: No. of patients with AEs of any grade (21.6 mg m^−2 (n=7)): 1 No. of patients | ALP elevation: No. of patients with AEs of any grade (27.0 mg m^−2 (n=15)): 7 No. of patients | AST elevation: No. of patients with AEs of any grade (27.0 mg m^−2 (n=15)): 9 No. of patients | Anaemia: No. of patients with AEs of any grade (27.0 mg m^−2 (n=15)): 12 No. of patients | Anorexia: No. of patients with AEs of any grade (27.0 mg m^−2 (n=15)): 2 No. of patients | Creatinine elevation: No. of patients with AEs of any grade (27.0 mg m^−2 (n=15)): 1 No. of patients | Diarrhoea: No. of patients with AEs of any grade (27.0 mg m^−2 (n=15)): 3 No. of patients | Fatigue: No. of patients with AEs of any grade (27.0 mg m^−2 (n=15)): 10 No. of patients | Hyperglycaemia (random): No. of patients with AEs of any grade (27.0 mg m^−2 (n=15)): 9 No. of patients | Infection without neutropenia: No. of patients with AEs of any grade (27.0 mg m^−2 (n=15)): 3 No. of patients | Lymphopenia: No. of patients with AEs of any grade (27.0 mg m^−2 (n=15)): 13 No. of patients | Mucositis: No. of patients with AEs of any grade (27.0 mg m^−2 (n=15)): 11 No. of patients | Nausea: No. of patients with AEs of any grade (27.0 mg m^−2 (n=15)): 6 No. of patients | Neutropenia: No. of patients with AEs of any grade (27.0 mg m^−2 (n=15)): 4 No. of patients | Thrombocytopenia: No. of patients with AEs of any grade (27.0 mg m^−2 (n=15)): 6 No. of patients | Vomiting: No. of patients with AEs of any grade (27.0 mg m^−2 (n=15)): 4 No. of patients | ALP elevation: No. of patients with AEs of any grade (32.4 mg m^−2 (n=5)): 5 No. of patients | AST elevation: No. of patients with AEs of any grade (32.4 mg m^−2 (n=5)): 3 No. of patients | Anaemia: No. of patients with AEs of any grade (32.4 mg m^−2 (n=5)): 5 No. of patients | Anorexia: No. of patients with AEs of any grade (32.4 mg m^−2 (n=5)): 1 No. of patients | Creatinine elevation: No. of patients with AEs of any grade (32.4 mg m^−2 (n=5)): 2 No. of patients | Diarrhoea: No. of patients with AEs of any grade (32.4 mg m^−2 (n=5)): 0 No. of patients | Fatigue: No. of patients with AEs of any grade (32.4 mg m^−2 (n=5)): 3 No. of patients | Hyperglycaemia (random): No. of patients with AEs of any grade (32.4 mg m^−2 (n=5)): 2 No. of patients | Infection without neutropenia: No. of patients with AEs of any grade (32.4 mg m^−2 (n=5)): 2 No. of patients | Lymphopenia: No. of patients with AEs of any grade (32.4 mg m^−2 (n=5)): 5 No. of patients | Mucositis: No. of patients with AEs of any grade (32.4 mg m^−2 (n=5)): 3 No. of patients | Nausea: No. of patients with AEs of any grade (32.4 mg m^−2 (n=5)): 4 No. of patients | Neutropenia: No. of patients with AEs of any grade (32.4 mg m^−2 (n=5)): 1 No. of patients | Thrombocytopenia: No. of patients with AEs of any grade (32.4 mg m^−2 (n=5)): 2 No. of patients | Vomiting: No. of patients with AEs of any grade (32.4 mg m^−2 (n=5)): 5 No. of patients
